# Assay results reported in US10308682B2, “Inhibition of tumor growth with aggregates of small molecules” (BRANDEIS UNIVERSITY, priority 2013, dated 2019).
# How the values were obtained:
# [1] = system: HepG2; experiment: Cell viability assay (MTT), HepG2; type: cell-based
# Method: (§1) Cells in exponential growth phase were seeded in a 96 well plate at a concentration of 50,000 cell/well. The cells were allowed to attach to the wells for 24 h at 37° C., 5% CO2, then the culture medium was removed and 100 μL new culture medium containing 1 at gradient concentrations was placed into each well. After culturing at 37° C., 5% CO2 for desired time, each well was added by 10 μL of 5 mg/mL MTT 43-(4,5-Dimethylthiazol-2-yl)-2,5-diphenyltetrazolium bromide), and the plated cells were incubate at dark for 4 h. 100 μL 10% SDS with 0.01 M HCl was added to each well to stop the reduction reaction and to dissolve the purple. After incubation of the cells at 37° C. for overnight, the viability is measured. Data represent the mean±standard deviation of three independent experiments.
# (§2) The estimation of the threshold concentration of aggregation (320-340 μM) for 1 allows us to examine the cytotoxicity of 1 in monomer and molecular aggregate forms. We first tested the cytotoxicity of 1 towards HeLa cells, the most widely studied cancer cell line, below and above the threshold concentration.
# [2] = target: T1, tubulin heterodimers (Sus scrofa, UniProt P02550+P02554); experiment: In vitro tubulin polymerization assay; type: biochemical
# T1 construct: purchased Cytoskeleton
# T1 sequence (P02550 whole entry): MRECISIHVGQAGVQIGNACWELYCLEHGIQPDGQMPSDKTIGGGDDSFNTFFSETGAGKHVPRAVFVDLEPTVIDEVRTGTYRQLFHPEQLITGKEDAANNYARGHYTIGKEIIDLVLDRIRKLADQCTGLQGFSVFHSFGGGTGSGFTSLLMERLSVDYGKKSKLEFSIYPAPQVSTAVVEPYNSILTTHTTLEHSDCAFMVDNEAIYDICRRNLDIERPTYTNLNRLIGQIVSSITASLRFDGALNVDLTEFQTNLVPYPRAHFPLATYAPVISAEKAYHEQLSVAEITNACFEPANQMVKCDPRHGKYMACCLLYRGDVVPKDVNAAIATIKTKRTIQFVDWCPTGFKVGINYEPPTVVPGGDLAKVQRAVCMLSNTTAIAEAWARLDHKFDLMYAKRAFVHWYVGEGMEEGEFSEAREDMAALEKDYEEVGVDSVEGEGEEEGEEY
# T1 sequence (P02554 whole entry): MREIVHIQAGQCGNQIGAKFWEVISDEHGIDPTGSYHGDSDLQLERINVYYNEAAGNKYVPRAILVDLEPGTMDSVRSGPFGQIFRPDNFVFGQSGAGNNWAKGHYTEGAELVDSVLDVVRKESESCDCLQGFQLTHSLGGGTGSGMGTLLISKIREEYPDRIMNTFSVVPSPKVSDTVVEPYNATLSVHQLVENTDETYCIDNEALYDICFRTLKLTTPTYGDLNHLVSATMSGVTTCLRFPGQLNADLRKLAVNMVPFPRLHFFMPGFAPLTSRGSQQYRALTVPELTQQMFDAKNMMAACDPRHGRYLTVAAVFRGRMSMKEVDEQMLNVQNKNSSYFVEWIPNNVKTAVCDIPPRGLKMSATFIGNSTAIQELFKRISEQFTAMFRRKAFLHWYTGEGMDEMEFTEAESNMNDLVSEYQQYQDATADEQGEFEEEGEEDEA
# From the text: Tubulin polymerization assay in the presence of 1. In vitro tubulin polymerization reactions in (a) as prepared or (c) filtered reaction cocktail without 1 (control) or with different concentrations of 1. The amount of microtubule is in proportion to optical density at 340 nm. The calculated polymerization rate (Vmax) and the final tubulin polymer mass vs concentrations of 1 from tubulin polymerization in (b) as prepared or (d) filtered reaction cocktail. Negative stained TEM images of molecular aggregates of 1 binding with tubulin. Buffer (control) or 1 (final concentration at 200 to 500 μM) was introduced into reaction cocktail containing fully assembled microtubule (after 60 min of polymerization). The amount of microtubule remain unchanged after 30 min. (e) Molecular aggregates of 1 (400 μM) incubated with tubulins heterodimers in general tubulin buffer. Scale bar=40 nm. White arrows point at tubulin clusters on the molecular aggregates of 1. Confocal images of tubulin stained HeLa and other cell lines. (f) Time dependent cytotoxicity of 1 towards HeLa cells. Data are presented as mean±SD of three independent experiments. Tubulin staining of HeLa cells treated with as-prepared medium containing (g) 0 μM, (h) 200 μM, (i) 300 μM and (j) 400 μM of 1, and filtered medium (k) containing 400 μM of 1 for 24 h. Insets are 3× enlarged images. T98G (l, m) and PC12 (n, o) were also treated with as-prepared medium containing 0 or 400 μM of 1 for 24 h for tubulin staining DNA was counterstained blue by DAPI. Scale bar=10 μm. See also FIG. 12.
# As the major function of tubulin is to polymerize into microtubule, we carried out in vitro tubulin polymerization assay to evaluate how the molecular aggregates of 1 affect the polymerization of tubulin. We incubated tubulin heterodimers (i.e., the α- and β-tubulin heterodimer, existing almost exclusively in heterodimer form in cytoplasm) with 1 at different concentrations and monitored the formation of microtubule (FIG. 5). […] At 300 μM of 1, the polymerization curve starts to deviate slightly from the control curve. […] To confirm that the molecular aggregates of 1, but not monomeric 1, inhibit the formation of microtubules, we filtrated of the reaction mixture by a 0.22 μm PVDF filter before the addition of tubulins. […] However, filtrated reaction mixtures containing 200 to 500 μM of 1 has similar polymerization curve to that of control.
# [3] = system: PC12; experiment: Cell viability assay (MTT), PC12 neuronal cell line; type: cell-based
# Method: (§3) FIG. 10 depicts the long term cytotoxicity of 1 on PC12 cells. Related to FIG. 2. (a) MTT viability test of cell incubated with gradient concentration of 1 for up to 7 days without changing medium. Data are presented as mean±SD of three independent experiments. (b) Intracellular concentration of 1 in PC12 cells treated with 1 for 12 h at 37° C. measured by LC-MS (left bar=400 μM; right bar=300 μM). (c) Cells were subcultured and re-seeded with new medium containing the same concentration of 1 (0 for control group and 400 μM for test group) every 4 days. Data are presented as mean±SD of three independent experiments.
# as §1, §2
# [4] = as above; type: cell-based; conditions: rat, PC12 cells; 400 and 500 μM, 7 days
# Method: as §3, §1, §2
# [5] = system: HeLa tumors; experiment: Xenograft mouse model, HeLa tumors, peritumoral injection; type: in vivo, Nu/nu mice
# Method: FIG. 2 depicts the cytotoxicity of 1. Cell viability assay (MTT) of HeLa cells after 24 and 48 h of treatment with (a) as prepared or (b) filtered medium containing different concentrations of 1. Also shown are MTT assays of 1 towards (c) MCF 7, (d) HepG2, (e) T98G and (f) PC12 cell lines. Data are presented as mean±SD of three independent experiments. (g) Tumor progression curves of mice bearing HeLa tumors. 0.1 mL of 1 at 5 mM or 0.5 mM in PBS buffers or just PBS buffer as control (six doses, starting day 1) was subcutaneous peritumorally injected every three days. Data are presented as mean±SD of relative tumor volume (n=4 for treatment groups and n=3 for control group). *p<0.05, by Student's t test. (at day 19, 5 mM=bottom data point; 0.5 mM=middle data point; control=top data point). (h) A representative image to show the mice, started with similar initial tumor volume (V0), from each group on 19th day of treatment. White arrows point at tumor. See also FIG. 9, FIG. 10, and FIG. 11.
# Nu/nu mice were injected with HeLa cells (5×10^6) subcutaneously for tumor development. Treatment was started when average tumor size reached 30 mm^3. Mice were divided into three groups. One group (n=3) received 0.1 mL PBS buffer as control, the other two groups (n=4) received 0.1 mL of 1 at 5 mM or 0.5 mM. Six doses were given every three days starting day 1. Progression of tumor was monitored until 19th day of the treatment.
# To further assess the inhibitory effect of molecular aggregates of 1 to cancer cells, we inoculated HeLa cells on nude mice and treated the xenograft tumors with molecular aggregates of 1 by peritumoral injection.
structure (smiles),measurement,setting,value
O=C(Cc1ccc2ccccc2c1)N[C@@H](Cc1ccccc1)C(=O)N[C@@H](Cc1ccccc1)C(=O)O [Compound 1],cytotoxicity towards HepG2,[1],decreases of cell viabilities only observed at 400 and 500 μM
same,polymerization rate (Vmax),"[2]; 200 μM or 300 μM, as prepared",barely inhibits the polymerization of tubulins
same,final amount of polymers (microtubule),"[2]; 300 μM, as prepared",slightly decreases the amount of microtubules
same,polymerization rate (Vmax),"[2]; 400 or 500 μM, as prepared",drastically decreases the Vmax
same,reduction of final amount of polymers (microtubule),"[2]; 400 or 500 μM, as prepared",about 30 % decrease
same,Vmax and final amount of polymers after filtration,"[2]; 400 or 500 μM, filtered by 0.22 μm PVDF filter",only causes slight decreases in both Vmax and the final amount of polymers of tubulins
same,"viability of PC12 cells, constant supply of 1","[3]; 400 μM, after 7 days, re-seeded with new medium every 4 days",significant loss of cell viability
same,toxicity towards PC12,[3]; 400 and 500 μM,little toxicity
same,viability at 7 days,[4],> 60%
same,effect on tumor growth,"[5]; 0.5 mM (~1 mg/kg), 0.1 mL peritumoral, every three days",little effect on tumor growth
same,surface of the skin covering and around the tumor,[5]; 5 mM,intact (with no ulceration or sclerosis)
same,effect on tumor progression,"[5]; 5 mM (~10 mg/kg), 0.1 mL peritumoral, every three days",starts to inhibit tumor progression after 10th day of treatment
same,tumor size versus 0.5 mM group and control group,"[5]; 5 mM, 19th day of treatment",significantly smaller
same,body weight change,[5]; 0.1 mL of 5 mM or 0.5 mM,no significant weight loss or weight gain
